From US6458764B1, “GRF analogs with increased biological potency” (Theratechnologies Inc., priority 1995, dated 2002)
Where no end group is shown, it is not given here. The star is where a group is joined. Hexenoyl(3E) = CC/C=C/CC(=O)*

Assays:
IGF-1 levels in pig sera = assay: Effect of hGRF(1-44)NH2 analogs on IGF-1 levels following S.C. chronic administration in growing male pigs (Example XI, IRMA); type: in vivo
Protocol: The objective of this experiment was to compare the effects of 8 different hGRF(1-44)NH2 analogues including TH 9507 on IGF-1 levels following S.C. chronic administration in growing male pigs.
Animal procedures were conducted as described in the protocol GRF-30 submitted Apr. 30, 1999, with the following modification: only 8 GRF analogues, including TH 9507, were provided by the sponsor. Accordingly, the study was performed on 30 pigs.
Laboratory procedures were conducted as follow: IGF-l levels were measured in pig sera using a commercial kit (DSL-5600) purchased from Diagnostic Systems Laboratories Inc., Tex., USA. Briefly, IGF-1 levels are quantified using a two-site immunoradiometric assay (IRMA) following acid-ethanol extraction.
Statistical analysis: IGF-1 data were subjected to a two-way repeated measures analysis of variance, with time (day 1, 3 or 6) and treatments (A to J) as variation factors pairwise multiple comparison procedures were then run by the Student-Newman-Keuls method. All statistical procedures were performed using the computerized SigmaStat software (Jandel Scientific). A P<0.05 was considered statistically significant.

serum IGF-I = assay: Repeated S.C. administrations of GRF analogs, serum IGF-I levels in pigs (Example I, Experiments 1-3; radioimmunoassay); type: in vivo, pigs (Landrace x Yorkshire); details: for serum IGF-I, Day 1 (pretreatment): pretreatment baseline
Protocol: The objective of these experiments was to assess the potential of the GRF analogs as anabolic agents.
Therefore, in order to investigate the anabolic potency of the fatty acid-GRF analogs, their ability to increase IGF-I levels following repeated S.C. administrations in pig was evaluated.
26 Landrace x Yorkshire castrated male pigs (40-45 kg BW) were randomly distributed into 4 experimental groups:
Each animal was injected BID (twice a day) subcutaneously for 4 consecutive days. One blood sample was collected each morning prior to the first injection of the day, and the day after the last injection, for IGF-I measurement.
40 Landrace x Yorkshire castrated male pigs (40-45 kg BW) were randomly distributed into 5 experimental groups:
(§1) Each animal was injected BID (twice a day) subcutaneously for 5 consecutive days. One blood sample was collected each morning prior to the first injection of the day, and the day after the last injection, for IGF-I measurement.
48 Landrace x Yorkshire castrated male pigs (40-45 kg BW) were randomly distributed into 6 experimental groups:
as §1, with “The selected doses were 30 μg/kg for hGRF(1-44)NH2 analogs and 20 μg/kg for hGRF(1-29)NH2 analogs, which give identical doses on a molar basis. Each” for “Each”, “measurements.” for “measurement.”
IGF-I levels were measured in pig serum by double antibody radioimmunoassay after formic acid-acetone extraction, as previously described (Abribat T. et al., 1993, J. Endocrinol., 39:583-589). The extraction prior to radioimmunoassay is a necessary step to remove endogenous IGF-binding proteins.
In both experiments, the IGF-I data were analyzed by a two way repeated measure analysis of variance, with day and treatment (GRF analog) as sources of variation. Multiple comparison procedures were there run (Student-Newman Keuls method). A P<0.05 was considered as statistically significant.

pig serum GH [1] = assay: Intravenous GH-releasing potency in pigs (Example III); type: in vivo, pigs (Landrace x Yorkshire); details: 4 μg/kg
Protocol: This experiment was conducted to test the I.V. acute GH-releasing potency of (Hexenoyl trans-3)0 hGRF (1-29) NH2, a GRF analog, in a model physiologically close to human and to compare it to that of hGRF(1-29)NH2.
(Hexenoyl trans-3)0 hGRF (1-29) NH2 is a combination of the natural hGRF(1-29)NH2 and natural fatty acids. This study was a multidose, single I.V. injection study.
ADMINISTRATION: intravenous acute injection.
(§2) TEST SYSTEM: Landrace x Yorkshire pigs.
DESIGN: […] pigs (4 spare animals) were cannulated (a catheter surgically implanted in one jugular vein) within on week, before the study. On days 1 and 7, cannulated animals were randomly distributed into 7 groups (n=4 pigs per group).
Blood samples for pGH assay were collected every 20 min from 1 hour before to 5 hours after GRF injections, with additional samplings 10 and 30 min after injection (n=21 samples). Blood samples are allowed to clot at +4° C. Serum will be harvested by centrifugation, stored at −20° C. and submitted to pGH assays.

pig serum GH [2] = assay: Subcutaneous GH-releasing potency in pigs (Example IV); type: in vivo, pigs (Landrace x Yorkshire); details: for effect on GH area under the curve, 0 to 420 minutes following injection: S.C., FIG. 5
Protocol: This experiment was conducted to test the S.C. acute GH-releasing potency of (Hexenoyl trans-3)0 hGRF (1-29) NH2, a GRF analog, in a model physiologically close to human and to compare it to that of hGRF(1-29)NH2.
ADMINISTRATION: Subcutaneous acute injection.
as §2
DESIGN: Thirty six (36) pigs (4 spare animals) were cannulated (a catheter surgically implanted in one jugular vein) within one week, before the study. On days 1 and 7, cannulated animals were randomly distributed into 8 groups (n=4 pigs per group).
Blood samples for pGH assay were collected every 20 min from 1 hour before to 7 hours after GRF injections, (n=25 samples). Blood samples were allowed to clot at +4CC. Serum is harvested by centrifugation, stored at −20° C. and submitted to pGH assays.

[3] = metabolites have no residual biological activity; cited from earlier work
[4] = Experiment 1, 20 μg/kg BID SC × 4 days, mean of 6 to 7
[5] = Experiment 2, 40 μg/kg BID SC × 5 days, mean of 8
[6] = Experiment 3, 30 μg/kg BID SC × 5 days, mean of 8

TH 9507: one of 8 different hGRF(1-44)NH2 analogues provided by the sponsor; structure not stated ({Hexenoyl(3E)}-YADAIFTNSYRKVLGQLSARKLLQDIMSRQQGESNQERGARARL-NH2)
IGF-1 levels on day 6 compared to basal levels on day 1 (IGF-1 levels in pig sera; S.C. chronic administration in growing male pigs, FIG. 7): significantly increased IGF-1 levels | IGF-1 levels following 5 days of injection (IGF-1 levels in pig sera; S.C. chronic administration in growing male pigs, saline group 190.1±21.0 ng/ml): 279.1 ± 28.4 ng/mL

hGRF (1-29)NH2 [hGRF(1-29)NH2, reference compound]
effect on IGF-I levels (serum IGF-I; Experiment 1, 20 μg/kg BID SC × 4 days): ineffective | effect on IGF-I levels (serum IGF-I; Experiment 1, 20 μg/kg BID SC × 4 days, listed as Human GRF(1-29)NH2): no effect on IGF-I levels | serum IGF-I, Day 2 (serum IGF-I; [4]): 235 ng/mL | serum IGF-I, Day 3 (serum IGF-I; [4]): 263 ng/mL | serum IGF-I, Day 4 (serum IGF-I; [4]): 258 ng/mL | serum IGF-I, Day 5 (serum IGF-I; [4]): 262 ng/mL | serum IGF-I, Day 1 (pretreatment) (serum IGF-I; [4]): 252 ng/mL | serum IGF-I levels (serum IGF-I; Experiment 2, 40 μg/kg BID SC × 5 days): remained stable | serum IGF-I, Day 2 (serum IGF-I; [5]): 243 ng/mL | serum IGF-I, Day 3 (serum IGF-I; [5]): 267 ng/mL | serum IGF-I, Day 4 (serum IGF-I; [5]): 275 ng/mL | serum IGF-I, Day 5 (serum IGF-I; [5]): 267 ng/mL | serum IGF-I, Day 6 (serum IGF-I; [5]): 256 ng/mL | serum IGF-I, Day 1 (pretreatment) (serum IGF-I; [5]): 244 ng/mL | effect on GH area under the curve (0 to 300 minutes following injection) (pig serum GH [1]; I.V., FIG. 3): significant effect on GH secretion | duration of GH release following injection (pig serum GH [1]; one intravenous injection, FIG. 2): approximately 60 minutes | effect on GH area under the curve, 0 to 420 minutes following injection (pig serum GH [2]; 1.25 μg/kg): did not induce any significant GH response | effect on GH area under the curve, 0 to 420 minutes following injection (pig serum GH [2]; 5 μg/kg): did not induce any significant GH response | effect on GH area under the curve, 0 to 420 minutes following injection (pig serum GH [2]; 20 μg/kg): did not induce any significant GH response | duration of GH response following administration (pig serum GH [2]; one subcutaneous injection, 5 μg/kg, FIG. 4): ≤ 60 min | degradation in a serum medium [3]: rapidly degraded

hGRF(1-44)NH2 (YADAIFTNSYRKVLGQLSARKLLQDIMSRQQGESNQERGARARL-NH2) [reference compound]
effect on IGF-I levels (serum IGF-I; Experiment 3, 30 μg/kg BID SC × 5 days, except a significant effect on day 5, not sustained on day 6): little or no effect on IGF-I levels | serum IGF-I, Day 2 (serum IGF-I; [6]): 254 ng/mL | serum IGF-I, Day 3 (serum IGF-I; [6]): 285 ng/mL | serum IGF-I, Day 4 (serum IGF-I; [6]): 297 ng/mL | serum IGF-I, Day 5 (serum IGF-I; [6]): 303 ng/mL | serum IGF-I, Day 6 (serum IGF-I; [6]): 296 ng/mL | serum IGF-I, Day 1 (pretreatment) (serum IGF-I; [6]): 245 ng/mL | variations of IGF-1 concentrations in the study period (IGF-1 levels in pig sera; injected subcutaneously in pigs twice a day at 10 ug/kg, FIG. 7): not able to induce any significant increase in IGF-1 levels
